In brackets after ≈: the same amount, converted by molar mass. Several values for one entry are separate records, joined by “and”; a condition that tells them apart may be missing. Equal values may be shown once. Read-outs that look alike come from different tables or passages of the source.
Tests used:
Gardnerella swidsinskii = assay: microbe, parasite or virus in culture; format: cell-based; details: for MIC before passaging: 48 h incubation
Procedure: (§1) The minimum inhibitory concentration (MIC), which is a standard measure of the activity of antimicrobials, was determined according to the Clinical and Laboratory Standards Institute protocol (2018) Methods for Antimicrobial Susceptibility Testing of Anaerobic Bacteria (Carpenter et al., 2018). […] Controls for growth in the absence of antimicrobials were also included. OD600 was recorded by a microplate reader (Tecan, Grodig, Austria) after incubation at 37° C. for 48 h or, for some fast-growing strains, after incubation for 24 h. Absence of growth was defined as OD600≤0.14. […] MIC readout and MBC99.5 spotting were performed after 72 h incubation for H2B10B11.
(§2) However, topical intravaginal antibiotic administration is recommended for BV therapy, which allows to reach concentrations of active ingredients in the mg/mL range. […] Abbreviations: n.d., not determined; SJHB, St. Jan Hospital Bruges.
(§3) MIC90 is defined as the MIC value for 90% of the tested strains. For PM-477 (H2B10), the resistance breakpoint is not defined, therefore a “% resistant” is not defined (n.d.).

All Gardnerella = assay: MIC assessment in suspension, panel of 22 strains; format: cell-based, Gardnerella spp.
Procedure: as §1, §2, §3

G. swidsinskii biofilm = format: cell-based, Gardnerella swidsinskii
Procedure: (§4) Gardnerella spp. (see figures for strain specification) was resuspended in brain heart infusion broth supplemented with 2% (w/v) gelatin, 0.5% yeast extract (w/v), 0.1% starch (w/v) and 0.25% glucose (w/v) (sBHIG). Passaged strains were resuspended in unbuffered NYCB supplemented with 1% glucose (w/v) (sNYCB). The OD600 was set to 0.1 (approx. 10^7-10^8 CFU/mL) and the cell suspension was diluted 1:10 in growth medium as input for biofilm formation. A total of 200 μL of the respective bacterial suspensions was added to 96-well flat bottom plates (tissue-culture treated, Sigma-Aldrich). The biofilms were grown under anaerobic conditions at 37° C. for 40 to 72 hours, depending on the isolate. Subsequently, the supernatant was removed, and the biofilm was treated with antimicrobials dissolved in sBHIG (at pH 5 for treatment with PM-477 (H2B10), and unbuffered for treatment with antibiotics) in 100 μL and incubated anaerobically at 37° C. for another 24 hours. After the treatment, the biofilms were washed twice with 200 μL 1x PBS and dissolved by vigorous pipetting (40x up and down). Serial dilutions of the dissolved cells were spotted on chocolate agar plates. The plates were incubated anaerobically for two to three days and the minimum biofilm eradication concentration (MBEC) of the endolysin or the antibiotics in use were calculated.
(§5) Gardnerella dominated biofilms covering the human vaginal epithelial cells are now generally considered as a hallmark of BV. Thus, it was tested how effective antibiotics and PM-477 (H2B10) are in penetrating and killing in vitro pre-formed, 40-72 h old biofilms of various Gardnerella strains.

G. piotii biofilm = format: cell-based, Gardnerella piotii
Procedure: as §4, §5

passaged G. swidsinskii = assay: MIC on strains passaged with MDZ-OH; format: cell-based, Gardnerella swidsinskii; details: for MIC: Gardnerella swidsinskii, 48 h; for MIC passaged: 48 h incubation
Procedure: as §1, with “H2B10B11. MBC99.5 is the minimum concentration of an antibacterial agent that results in bacterial death of all cells in suspension up to a defined limit of detection, resulting in killing of at least 99.5% of bacteria.” for “H2B10B11.”
The final volume of the reaction was 100 µL and the reactions were performed in triplicate in 384-well plates. The OD600 was measured using a microplate reader (Tecan, Grodig, Austria) to generate timepoint 0 h baseline values. The reactions were incubated anaerobically for 24 h, then the OD600 was measured again, and the MIC was measured as the lowest concentration with OD600<0.14. […] This process was repeated for a maximum of 25 rounds. In each round, the input CFU/mL was determined by quantitative plating.
(§6) The susceptibility of Gardnerella strains before and after 8 to 9-times passaging with sub-MIC concentrations of MZD or MDZ-OH is shown in Table 4 below. All MICs determined after 48 h of incubation.

passaged G. piotii = assay: MIC on strains passaged with MDZ-OH; format: cell-based, Gardnerella piotii
Procedure: as §1, with “H2B10B11. MBC99.5 is the minimum concentration of an antibacterial agent that results in bacterial death of all cells in suspension up to a defined limit of detection, resulting in killing of at least 99.5% of bacteria.” for “H2B10B11.”
The final volume of the reaction was 100 µL and the reactions were performed in triplicate in 384-well plates. The OD600 was measured using a microplate reader (Tecan, Grodig, Austria) to generate timepoint 0 h baseline values. […] In each round, the input CFU/mL was determined by quantitative plating.
as §6

[1] = test system: passaged G. swidsinskii biofilm; assay: MBEC on biofilms of passaged strains; format: cell-based, Gardnerella swidsinskii
Procedure: as §4
(§7) All MICs determined after 48 h of incubation.

[2] = test system: G. vaginalis (ATCC 14018); assay: Bactericidal effect in suspension by quantitative plating, wild type and MDZ-passaged; format: cell-based, Gardnerella vaginalis; details: for reduction of a suspension of 108 CFU/mL: 10 μg/mL, 1 h
Procedure: Bacterial suspensions (OD600 of 0.1, corresponding to approximately 10^7-10^8 CFU/mL) were prepared by scraping the cells from confluently grown agar plates and diluting them into NYCB+10% HS, pH 5.5. Reactions were performed in triplicate by mixing ten μl of endolysin (200 μg/mL) with 90 μL bacterial suspension in the wells of a 96-well plate. Ten UL MES buffer without the endolysin was used as a control. […] Tenfold dilution series (10^−1 to 10^−6) of the cell reaction mixtures were prepared in NYCB+10% HS and 2 μL of each dilution were spotted onto Choc agar plates. After anaerobic incubation at 37° C. for 48 h, colonies were counted, CFU/mL calculated, and the log10 reduction compared to MES buffer treated control was determined.
as §7

[3] = G. swidsinskii (BV7) UGent BV7.1
[4] = ancestor G. swidsinskii GS 9838-1, pre-formed biofilm
[5] = ancestor G. swidsinskii UGent BV 7.1, pre-formed biofilm
[6] = ancestor G. piotii UGent 18.01, pre-formed biofilm
[7] = ancestor G. piotii UGent 21.28, pre-formed biofilm
[8] = G. swidsinskii (GS 9838-1T) passaged with MDZ-OH
[9] = G. swidsinskii (UGent BV 7.1) passaged with MDZ-OH
[10] = Gardnerella swidsinskii, N=4 strains

## Cc1ncc([N+](=O)[O-])n1CCO [MDZ, metronidazole]
Gardnerella swidsinskii; [3]
  MBC99.5: >512 µg/mL
Gardnerella swidsinskii; Gardnerella swidsinskii
  MIC90: > 256 µg/mL
Gardnerella swidsinskii; Gardnerella swidsinskii, 48 h, read-out: MIC before passaging, G. swidsinskii (GS 9838-1T), 48 h incubation
  MIC: 256 µg/mL (≈ 1500 µM)
Gardnerella swidsinskii; Gardnerella swidsinskii, 48 h, read-out: MIC before passaging, G. swidsinskii (UGent BV 7.1), 48 h incubation
  MIC: 256 µg/mL (≈ 1500 µM)
Gardnerella swidsinskii; Gardnerella swidsinskii, G. swidsinskii (BV7) UGent BV7.1, suspension, read-out: MIC
  MIC: 256 µg/mL (≈ 1500 µM)
Gardnerella swidsinskii; Gardnerella swidsinskii, G. swidsinskii (BV139) UGent BV139.3, suspension, read-out: MIC
  MIC: 256 µg/mL (≈ 1500 µM)
Gardnerella swidsinskii; Gardnerella swidsinskii, G. swidsinskii (Gs23) GS 10234, suspension
  MIC: 64 µg/mL (≈ 374 µM)
Gardnerella swidsinskii; Gardnerella swidsinskii, G. swidsinskii (Gs24) GS 9838-1(T), suspension, read-out: MIC
  MIC: 256 µg/mL (≈ 1500 µM)
Gardnerella swidsinskii; Gardnerella swidsinskii, read-out: MBC99.5, G. swidsinskii (BV139) UGent BV139.3
  MBC: 256 µg/mL (≈ 1500 µM)
Gardnerella swidsinskii; Gardnerella swidsinskii, G. swidsinskii (Gs24) GS 9838-1(T), read-out: MBC99.5
  MBC: > 512 µg/mL
All Gardnerella; N=22, resistance ≥32 μg/mL MDZ
  N resistant (%): 59% and 60%
All Gardnerella; N=22, resistance ≥32 μg/mL MDZ, ≥8 μg/mL CLI
  N resistant: 13
All Gardnerella; N=22 strains
  MIC90: >256 µg/mL
All Gardnerella; N=22 strains, read-out: MIC90
  MIC90: > 256 µg/mL
G. swidsinskii biofilm; [4]
  MBEC: 32 µg/mL
G. swidsinskii biofilm; [5]
  MBEC: 32 µg/mL
G. piotii biofilm; [6]
  MBEC: 8 µg/mL
G. piotii biofilm; [7]
  MBEC: 8 to 32 µg/mL
Passaged G. swidsinskii; read-out: MIC passaged, G. swidsinskii (GS 9838-1T) passaged with MDZ-OH, 48 h incubation
  MIC: > 512 µg/mL
Passaged G. swidsinskii; read-out: MIC passaged, G. swidsinskii (UGent BV 7.1) passaged with MDZ-OH, 48 h incubation
  MIC: > 2050 µg/mL
Passaged G. piotii; Gardnerella piotii, 48 h, read-out: MIC passaged
  MIC: > 2050 µg/mL
[1]; [8]
  MBEC passaged: >2048 µg/mL
[1]; [9]
  MBEC passaged: >2048 µg/mL
[2]; MDZ-passaged G. vaginalis (ATCC 14018), 2 mg/ml, 24 h
  reduction compared to the buffer treated control: 2 log
[2]; MDZ-passaged G. vaginalis (ATCC 14018), up to 2 mg/ml, 1 and 5 hours
  loss in viability: without any loss in viability

B1: PM-477: genetically engineered recombinant Gardnerella-specific endolysin, amino acid sequence SEQ ID NO: 1, His-tag cleaved off (protein)
chain: SKRGIDVSEWQGDIDFNAVKASGVEFVIIRAGYGIGCKDKWFEQNYRKAKTCGLDVGAYWYSYANSGFEAAEEAQSCVNMLSGKSFEYPVYFDLEEKSQLNRGRAFCDSLITGFCNKLESCGYYAGFYTSLSTANNLVSAHVRNRYALWIAQWNTHCSYQGSYGLWQYSSSGSVPGVAGRVDMDYAYVDYPSIIKNVGLNGYKNGGSYTAPQISSIDEVAREVINGDWGNGNERKQRLTSAGYDYASVQNKVNELLGVKAYRKSVDELAREVIRGTWGNGSTRKQRLTQAGYDYNAVQKRVNELL
modifications: His-tag cleaved off; H2B10
Gardnerella swidsinskii; [3]
  MBC99.5: 0.25 µg/mL
Gardnerella swidsinskii; G. swidsinskii (BV7) UGent BV7.1, suspension
  MIC: 0.25 µg/mL
Gardnerella swidsinskii; G. swidsinskii (BV139) UGent BV139.3
  MBC99.5: 0.125 µg/mL
Gardnerella swidsinskii; G. swidsinskii (GS 9838-1T)
  MIC before passaging: 0.03 µg/mL
Gardnerella swidsinskii; G. swidsinskii (Gs23) GS 10234
  MBC99.5: 0.125 µg/mL
Gardnerella swidsinskii; G. swidsinskii (Gs23) GS 10234, suspension
  MIC: 0.063 µg/mL
Gardnerella swidsinskii; G. swidsinskii (Gs24) GS 9838-1(T)
  MBC99.5: 0.06 µg/mL
Gardnerella swidsinskii; G. swidsinskii (Gs24) GS 9838-1(T), suspension
  MIC: 0.03 µg/mL
Gardnerella swidsinskii; G. swidsinskii (UGent BV 7.1)
  MIC before passaging: 0.25 µg/mL
Gardnerella swidsinskii; [10]
  MIC90: 0.25 µg/mL
  MIC Range: 0.03 to 0.25 µg/mL
All Gardnerella; N=22 strains
  MIC90: 1 µg/mL
All Gardnerella; N=22 strains, listed as PM-477 (H2B10)
  MIC Range: <0.03-1^ μg/mL
G. swidsinskii biofilm; [4]
  MBEC: <2 µg/mL
G. swidsinskii biofilm; [5]
  MBEC: 32 µg/mL
G. piotii biofilm; [6]
  MBEC: 8 µg/mL
G. piotii biofilm; [7]
  MBEC: 2 to 8 µg/mL
Passaged G. swidsinskii; [8]
  MIC passaged: 0.06 µg/mL
Passaged G. swidsinskii; [9]
  MIC passaged: 0.06 µg/mL
Passaged G. piotii; G. piotii (UGent 18.01T) passaged with MDZ-OH, 48 h incubation
  MIC passaged: 2 µg/mL
[1]; [8]
  MBEC passaged: 2 µg/mL
[1]; [9]
  MBEC passaged: 2 µg/mL
[2]; MDZ-passaged G. vaginalis (ATCC 14018)
  reduction of a suspension of 108 CFU/mL: 2.8 log units
[2]; ancestral G. vaginalis (ATCC 14018)
  reduction of a suspension of 108 CFU/mL: 3.0 log units

Source: US20250144186A1, “NOVEL THERAPEUTIC USES OF GARDNERELLA ENDOLYSINS” (priority 2022, published 2025)
